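Tested at 5 concentrations; 48 h exposure; 96-well plates; endpoints linearly interpolated, else capped at highest concentration. TGI: total growth inhibition.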
Key:
Test in all cases: NCI tumour cell line growth inhibition, 48 h
[1] = system: OVCAR-8 ovarian
[2] = system: SNB-78 CNS
[3] = system: RXF-631 renal
[4] = system: SF-295 CNS
[5] = system: OVCAR-5 ovarian
[6] = system: MOLT-4 leukemia
[7] = system: SF-539 CNS
[8] = system: NCI-H23 lung
[9] = system: UACC-62 melanoma
[10] = system: HOP-18 NSCLC
[11] = system: SF-268 CNS
[12] = system: HOP-62 NSCLC
[13] = system: HT29 colon
[14] = system: MALME-3M melanoma
[15] = system: SNB-19 CNS
[16] = system: HCC-2998 colon
[17] = system: KM12 colon
[18] = system: TK-10 renal
[19] = system: LOX IMVI melanoma
[20] = system: SK-MEL-2 melanoma
[21] = system: M19-MEL melanoma
[22] = system: SW-620 colon
[23] = system: HOP-92 NSCLC
[24] = system: SNB-75 CNS
[25] = system: SR leukemia
[26] = system: OVCAR-4 ovarian
[27] = system: K-562 leukemia
[28] = system: RPMI-8226 leukemia
[29] = system: M14 melanoma
[30] = system: SK-MEL-5 melanoma
[31] = system: RXF 393 renal
[32] = system: U251 CNS
[33] = system: UO-31 renal
[34] = system: NCI-H460 lung
[35] = system: EKVX NSCLC
[36] = system: HL-60(TB) leukemia
[37] = system: NCI-H226 lung
[38] = system: HCT-15 colon
[39] = system: ACHN renal
[40] = system: A549 NSCLC
[41] = system: OVCAR-3 ovarian
[42] = system: SK-MEL-28 melanoma
[43] = system: DLD-1 colon
[44] = system: NCI-H522 lung
[45] = system: SN12C renal
[46] = system: CAKI-1 renal
[47] = system: CCRF-CEM leukemia
[48] = system: XF 498 CNS
[49] = system: 786-0 renal
[50] = system: UACC-257 melanoma
[51] = system: LXFL 529 NSCLC
[52] = system: SK-OV-3 ovarian
[53] = system: IGROV1 ovarian
[54] = system: COLO 205 colon
[55] = system: KM20L2 colon
[56] = system: HCT-116 colon
[57] = system: DMS 273 small cell lung
[58] = system: A498 renal
[59] = system: DMS 114 small cell lung

SMILES: O=C(O/N=C1/CCCC/C1=C\c1ccccc1)c1ccc(Cl)c(Cl)c1
- TGI [1]: 32.5 µM
- TGI [2]: 39.5 µM
- TGI [3]: 31.8 µM
- TGI [4]: > 100 µM
- TGI [5]: > 100 µM
- TGI [6]: 60.9 µM
- TGI [7]: 60 µM
- TGI [8]: 36.7 µM
- TGI [9]: 45.6 µM
- TGI [10]: > 100 µM
- TGI [11]: 24.6 µM
- TGI [12]: > 100 µM
- TGI [13]: 48.9 µM
- TGI [14]: > 100 µM
- TGI [15]: > 100 µM
- TGI [16]: > 100 µM
- TGI [17]: > 100 µM
- TGI [18]: 58.8 µM
- TGI [19]: 42.8 µM
- TGI [20]: > 100 µM
- TGI [21]: > 100 µM
- TGI [22]: 35.8 µM
- TGI [23]: > 100 µM
- TGI [24]: 61.6 µM
- TGI [25]: > 100 µM
- TGI [26]: 54.4 µM
- TGI [27]: 34.5 µM
- TGI [28]: > 100 µM
- TGI [29]: > 100 µM
- TGI [30]: > 100 µM
- TGI [31]: 60.2 µM
- TGI [32]: 32.9 µM
- TGI [33]: 31.8 µM
- TGI [34]: > 100 µM
- TGI [35]: > 100 µM
- TGI [36]: 34.1 µM
- TGI [37]: > 100 µM
- TGI [38]: > 100 µM
- TGI [39]: 30.3 µM
- TGI [40]: 32.3 µM
- TGI [41]: 41 µM
- TGI [42]: 68.4 µM
- TGI [43]: > 100 µM
- TGI [44]: 33.1 µM
- TGI [45]: > 100 µM
- TGI [46]: 67.2 µM
- TGI [47]: 53.2 µM
- TGI [48]: > 100 µM
- TGI [49]: 96.2 µM
- TGI [50]: > 100 µM
- TGI [51]: 27.9 µM
- TGI [52]: > 100 µM
- TGI [53]: 52.5 µM
- TGI [54]: 81.5 µM
- TGI [55]: > 100 µM
- TGI [56]: 26.4 µM
- TGI [57]: 53.8 µM

SMILES: CCOc1ccccc1NC(=O)CC1Sc2ccccc2NC1=O (centres undefined)
- TGI [1]: > 100 µM
- TGI [2]: > 100 µM
- TGI [3]: > 100 µM
- TGI [4]: > 100 µM
- TGI [5]: > 100 µM
- TGI [6]: > 100 µM
- TGI [7]: > 100 µM
- TGI [8]: > 100 µM
- TGI [9]: > 100 µM
- TGI [10]: > 100 µM
- TGI [11]: > 100 µM
- TGI [12]: > 100 µM
- TGI [13]: > 100 µM
- TGI [14]: > 100 µM
- TGI [15]: > 100 µM
- TGI [16]: > 100 µM
- TGI [17]: > 100 µM
- TGI [18]: > 100 µM
- TGI [19]: > 100 µM
- TGI [20]: > 100 µM
- TGI [21]: > 100 µM
- TGI [22]: > 100 µM
- TGI [23]: 76.8 µM
- TGI [24]: > 100 µM
- TGI [25]: 75.7 µM
- TGI [26]: > 100 µM
- TGI [27]: > 100 µM
- TGI [29]: > 100 µM
- TGI [30]: 86.6 µM
- TGI [31]: > 100 µM
- TGI [32]: > 100 µM
- TGI [33]: > 100 µM
- TGI [34]: > 100 µM
- TGI [35]: > 100 µM
- TGI [36]: 67.9 µM
- TGI [37]: > 100 µM
- TGI [38]: > 100 µM
- TGI [39]: > 100 µM
- TGI [40]: > 100 µM
- TGI [41]: > 100 µM
- TGI [42]: > 100 µM
- TGI [43]: > 100 µM
- TGI [44]: 73.7 µM
- TGI [45]: > 100 µM
- TGI [46]: > 100 µM
- TGI [47]: > 100 µM
- TGI [48]: > 100 µM
- TGI [49]: > 100 µM
- TGI [50]: > 100 µM
- TGI [51]: > 100 µM
- TGI [52]: > 100 µM
- TGI [53]: > 100 µM
- TGI [54]: > 100 µM
- TGI [55]: > 100 µM
- TGI [56]: > 100 µM
- TGI [57]: > 100 µM

SMILES: COC(=O)C(CC(=O)c1ccccc1)c1ccccc1NC(C)=O (centres undefined)
- TGI [1]: > 100 µM
- TGI [2]: > 100 µM
- TGI [3]: > 100 µM
- TGI [4]: > 100 µM
- TGI [5]: > 100 µM
- TGI [6]: > 100 µM
- TGI [7]: > 100 µM
- TGI [8]: > 100 µM
- TGI [9]: > 100 µM
- TGI [10]: > 100 µM
- TGI [11]: > 100 µM
- TGI [12]: > 100 µM
- TGI [13]: > 100 µM
- TGI [14]: > 100 µM
- TGI [15]: > 100 µM
- TGI [16]: > 100 µM
- TGI [17]: > 100 µM
- TGI [18]: > 100 µM
- TGI [19]: > 100 µM
- TGI [21]: > 100 µM
- TGI [22]: > 100 µM
- TGI [23]: > 100 µM
- TGI [24]: > 100 µM
- TGI [25]: > 100 µM
- TGI [26]: > 100 µM
- TGI [27]: > 100 µM
- TGI [28]: > 100 µM
- TGI [29]: > 100 µM
- TGI [30]: > 100 µM
- TGI [32]: > 100 µM
- TGI [33]: > 100 µM
- TGI [58]: > 100 µM
- TGI [59]: > 100 µM
- TGI [34]: > 100 µM
- TGI [35]: > 100 µM
- TGI [36]: > 100 µM
- TGI [37]: > 100 µM
- TGI [38]: > 100 µM
- TGI [39]: > 100 µM
- TGI [40]: > 100 µM
- TGI [41]: > 100 µM
- TGI [42]: > 100 µM
- TGI [43]: > 100 µM
- TGI [44]: > 100 µM
- TGI [45]: > 100 µM
- TGI [46]: > 100 µM
- TGI [47]: > 100 µM
- TGI [48]: > 100 µM
- TGI [49]: > 100 µM
- TGI [50]: > 100 µM
- TGI [51]: > 100 µM
- TGI [52]: > 100 µM
- TGI [53]: > 100 µM
- TGI [54]: > 100 µM
- TGI [55]: > 100 µM
- TGI [56]: > 100 µM
